# According to PubChem BioAssay (NCI):
#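 The compound was tested at five concentrations on cells cultured in 96-well plates, with a 48-hour exposure period. TGI marks complete inhibition of growth.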
# Experiments:
# Experiment in all cases: NCI tumour cell line growth inhibition, 48 h
# NCI/ADR-RES ovarian = system: NCI/ADR-RES ovarian
# IGROV1 ovarian = system: IGROV1 ovarian
# OVCAR-8 ovarian = system: OVCAR-8 ovarian
# KM12 colon = system: KM12 colon
# OVCAR-5 ovarian = system: OVCAR-5 ovarian
# CCRF-CEM leukemia = system: CCRF-CEM leukemia
# OVCAR-4 ovarian = system: OVCAR-4 ovarian
# SNB-75 CNS = system: SNB-75 CNS
# SF-539 CNS = system: SF-539 CNS
# SNB-78 CNS = system: SNB-78 CNS
# MOLT-4 leukemia = system: MOLT-4 leukemia
# HOP-62 NSCLC = system: HOP-62 NSCLC
# LOX IMVI melanoma = system: LOX IMVI melanoma
# NCI-H226 lung = system: NCI-H226 lung
# RXF 393 renal = system: RXF 393 renal
# DMS 114 small cell lung = system: DMS 114 small cell lung
# HCT-116 colon = system: HCT-116 colon
# XF 498 CNS = system: XF 498 CNS
# NCI-H23 lung = system: NCI-H23 lung
# A549 NSCLC = system: A549 NSCLC
# SK-OV-3 ovarian = system: SK-OV-3 ovarian
# MALME-3M melanoma = system: MALME-3M melanoma
# HCC-2998 colon = system: HCC-2998 colon
# SW-620 colon = system: SW-620 colon
# UO-31 renal = system: UO-31 renal
# KM20L2 colon = system: KM20L2 colon
# SNB-19 CNS = system: SNB-19 CNS
# A498 renal = system: A498 renal
# SN12C renal = system: SN12C renal
# RPMI-8226 leukemia = system: RPMI-8226 leukemia
# HL-60(TB) leukemia = system: HL-60(TB) leukemia
# P388/ADR leukemia = system: P388/ADR leukemia
# U251 CNS = system: U251 CNS
# UACC-62 melanoma = system: UACC-62 melanoma
# HOP-92 NSCLC = system: HOP-92 NSCLC
# CAKI-1 renal = system: CAKI-1 renal
# HCT-15 colon = system: HCT-15 colon
# M19-MEL melanoma = system: M19-MEL melanoma
# SF-295 CNS = system: SF-295 CNS
# NCI-H522 lung = system: NCI-H522 lung
# SK-MEL-5 melanoma = system: SK-MEL-5 melanoma
# HOP-18 NSCLC = system: HOP-18 NSCLC
# SK-MEL-28 melanoma = system: SK-MEL-28 melanoma
# K-562 leukemia = system: K-562 leukemia
# COLO 205 colon = system: COLO 205 colon
# NCI-H460 lung = system: NCI-H460 lung
# P388 leukemia = system: P388 leukemia
# EKVX NSCLC = system: EKVX NSCLC
# DLD-1 colon = system: DLD-1 colon
# UACC-257 melanoma = system: UACC-257 melanoma
# MCF7 breast = system: MCF7 breast
# SF-268 CNS = system: SF-268 CNS
# OVCAR-3 ovarian = system: OVCAR-3 ovarian
# SN12K1 renal = system: SN12K1 renal
# SK-MEL-2 melanoma = system: SK-MEL-2 melanoma
# HT29 colon = system: HT29 colon
# DMS 273 small cell lung = system: DMS 273 small cell lung
# 786-0 renal = system: 786-0 renal
# ACHN renal = system: ACHN renal
# RXF-631 renal = system: RXF-631 renal
# TK-10 renal = system: TK-10 renal
# LXFL 529 NSCLC = system: LXFL 529 NSCLC
# SR leukemia = system: SR leukemia
# M14 melanoma = system: M14 melanoma
smiles,measurement,setting,value
CCOC(=O)C(C)NC(=O)N(C)C12CC3CC(CC(C3)C1)C2 (stereo not drawn),TGI,NCI/ADR-RES ovarian,424 µM
same,TGI,IGROV1 ovarian,> 500 µM
same,TGI,OVCAR-8 ovarian,> 500 µM
same,TGI,KM12 colon,> 281 µM
same,TGI,OVCAR-5 ovarian,> 500 µM
same,TGI,CCRF-CEM leukemia,430 µM
same,TGI,OVCAR-4 ovarian,> 472 µM
same,TGI,SNB-75 CNS,227 µM
same,TGI,SF-539 CNS,> 500 µM
same,TGI,SNB-78 CNS,> 500 µM
same,TGI,MOLT-4 leukemia,420 µM
same,TGI,HOP-62 NSCLC,> 422 µM
same,TGI,LOX IMVI melanoma,323 µM
same,TGI,NCI-H226 lung,489 µM
same,TGI,RXF 393 renal,> 455 µM
same,TGI,DMS 114 small cell lung,312 µM
same,TGI,HCT-116 colon,> 500 µM
same,TGI,XF 498 CNS,453 µM
same,TGI,NCI-H23 lung,441 µM
same,TGI,A549 NSCLC,> 500 µM
same,TGI,SK-OV-3 ovarian,493 µM
same,TGI,MALME-3M melanoma,497 µM
same,TGI,HCC-2998 colon,> 500 µM
same,TGI,SW-620 colon,494 µM
same,TGI,UO-31 renal,492 µM
same,TGI,KM20L2 colon,> 500 µM
same,TGI,SNB-19 CNS,> 500 µM
same,TGI,A498 renal,442 µM
same,TGI,SN12C renal,> 500 µM
same,TGI,RPMI-8226 leukemia,422 µM
same,TGI,HL-60(TB) leukemia,272 µM
same,TGI,P388/ADR leukemia,> 409 µM
same,TGI,U251 CNS,> 500 µM
same,TGI,UACC-62 melanoma,> 474 µM
same,TGI,HOP-92 NSCLC,283 µM
same,TGI,CAKI-1 renal,> 404 µM
same,TGI,HCT-15 colon,490 µM
same,TGI,M19-MEL melanoma,> 452 µM
same,TGI,SF-295 CNS,> 500 µM
same,TGI,NCI-H522 lung,> 451 µM
same,TGI,SK-MEL-5 melanoma,286 µM
same,TGI,HOP-18 NSCLC,> 500 µM
same,TGI,SK-MEL-28 melanoma,> 500 µM
same,TGI,K-562 leukemia,> 500 µM
same,TGI,COLO 205 colon,> 316 µM
same,TGI,NCI-H460 lung,> 442 µM
same,TGI,P388 leukemia,231 µM
same,TGI,EKVX NSCLC,> 500 µM
same,TGI,DLD-1 colon,> 79.3 µM
same,TGI,UACC-257 melanoma,406 µM
same,TGI,MCF7 breast,395 µM
same,TGI,SF-268 CNS,> 500 µM
same,TGI,OVCAR-3 ovarian,> 479 µM
same,TGI,SN12K1 renal,> 500 µM
same,TGI,SK-MEL-2 melanoma,> 316 µM
same,TGI,HT29 colon,> 500 µM
same,TGI,DMS 273 small cell lung,> 500 µM
COc1cc(CCCOC2OC(COC3OCC(O)C(O)C3O)C(O)C(O)C2O)cc2cc(-c3ccc4c(c3)OCO4)oc12 (stereo not drawn),TGI,NCI/ADR-RES ovarian,> 175 µM
same,TGI,IGROV1 ovarian,> 175 µM
same,TGI,OVCAR-8 ovarian,109 µM
same,TGI,KM12 colon,> 175 µM
same,TGI,OVCAR-5 ovarian,> 175 µM
same,TGI,CCRF-CEM leukemia,> 69.7 µM
same,TGI,OVCAR-4 ovarian,> 175 µM
same,TGI,SNB-75 CNS,> 175 µM
same,TGI,SF-539 CNS,> 175 µM
same,TGI,SNB-78 CNS,> 175 µM
same,TGI,MOLT-4 leukemia,> 175 µM
same,TGI,HOP-62 NSCLC,> 175 µM
same,TGI,LOX IMVI melanoma,> 175 µM
same,TGI,NCI-H226 lung,> 175 µM
same,TGI,RXF 393 renal,> 114 µM
same,TGI,DMS 114 small cell lung,> 175 µM
same,TGI,HCT-116 colon,> 175 µM
same,TGI,XF 498 CNS,> 175 µM
same,TGI,NCI-H23 lung,> 175 µM
same,TGI,A549 NSCLC,> 175 µM
same,TGI,SK-OV-3 ovarian,> 175 µM
same,TGI,MALME-3M melanoma,> 175 µM
same,TGI,HCC-2998 colon,> 98.4 µM
same,TGI,SW-620 colon,> 175 µM
same,TGI,UO-31 renal,> 175 µM
same,TGI,KM20L2 colon,> 175 µM
same,TGI,SNB-19 CNS,> 175 µM
same,TGI,A498 renal,> 27.7 µM
same,TGI,SN12C renal,99.5 µM
same,TGI,RPMI-8226 leukemia,> 175 µM
same,TGI,HL-60(TB) leukemia,> 175 µM
same,TGI,P388/ADR leukemia,> 175 µM
same,TGI,U251 CNS,> 175 µM
same,TGI,UACC-62 melanoma,> 175 µM
same,TGI,HOP-92 NSCLC,> 175 µM
same,TGI,CAKI-1 renal,> 175 µM
same,TGI,HCT-15 colon,> 175 µM
same,TGI,M19-MEL melanoma,> 175 µM
same,TGI,SF-295 CNS,> 175 µM
same,TGI,NCI-H522 lung,> 175 µM
same,TGI,SK-MEL-5 melanoma,> 175 µM
same,TGI,SK-MEL-28 melanoma,> 175 µM
same,TGI,K-562 leukemia,> 175 µM
same,TGI,COLO 205 colon,> 175 µM
same,TGI,NCI-H460 lung,> 175 µM
same,TGI,P388 leukemia,> 175 µM
same,TGI,EKVX NSCLC,> 175 µM
same,TGI,DLD-1 colon,> 175 µM
same,TGI,UACC-257 melanoma,> 175 µM
same,TGI,MCF7 breast,> 175 µM
same,TGI,SF-268 CNS,> 175 µM
same,TGI,OVCAR-3 ovarian,> 175 µM
same,TGI,SN12K1 renal,> 175 µM
same,TGI,SK-MEL-2 melanoma,> 175 µM
same,TGI,HT29 colon,> 175 µM
same,TGI,DMS 273 small cell lung,> 175 µM
COc1cc(/C=C/C(=N\NC(=O)c2ccccc2)c2sc(Nc3ccc(Cl)c(Cl)c3)nc2C)ccc1O,TGI,IGROV1 ovarian,> 100 µM
same,TGI,OVCAR-8 ovarian,> 100 µM
same,TGI,KM12 colon,> 100 µM
same,TGI,OVCAR-5 ovarian,81.1 µM
same,TGI,CCRF-CEM leukemia,> 100 µM
same,TGI,OVCAR-4 ovarian,> 100 µM
same,TGI,SNB-75 CNS,> 100 µM
same,TGI,SF-539 CNS,> 100 µM
same,TGI,786-0 renal,> 100 µM
same,TGI,SNB-78 CNS,93.2 µM
same,TGI,MOLT-4 leukemia,66.6 µM
same,TGI,HOP-62 NSCLC,> 100 µM
same,TGI,LOX IMVI melanoma,44.9 µM
same,TGI,NCI-H226 lung,56 µM
same,TGI,ACHN renal,87.2 µM
same,TGI,RXF 393 renal,> 100 µM
same,TGI,DMS 114 small cell lung,71.5 µM
same,TGI,HCT-116 colon,> 100 µM
same,TGI,XF 498 CNS,91.3 µM
same,TGI,NCI-H23 lung,77.3 µM
same,TGI,A549 NSCLC,> 100 µM
same,TGI,RXF-631 renal,72.5 µM
same,TGI,SK-OV-3 ovarian,> 100 µM
same,TGI,MALME-3M melanoma,70.6 µM
same,TGI,HCC-2998 colon,91.8 µM
same,TGI,SW-620 colon,> 100 µM
same,TGI,UO-31 renal,77.7 µM
same,TGI,KM20L2 colon,> 100 µM
same,TGI,SNB-19 CNS,> 100 µM
same,TGI,SN12C renal,> 100 µM
same,TGI,TK-10 renal,> 100 µM
same,TGI,HL-60(TB) leukemia,40 µM
same,TGI,U251 CNS,88.9 µM
same,TGI,UACC-62 melanoma,26.1 µM
same,TGI,LXFL 529 NSCLC,> 100 µM
same,TGI,HOP-92 NSCLC,16.3 µM
same,TGI,SR leukemia,62.3 µM
same,TGI,CAKI-1 renal,> 100 µM
same,TGI,HCT-15 colon,> 100 µM
same,TGI,M19-MEL melanoma,> 100 µM
same,TGI,SF-295 CNS,> 100 µM
same,TGI,NCI-H522 lung,47.6 µM
same,TGI,HOP-18 NSCLC,79.3 µM
same,TGI,SK-MEL-28 melanoma,> 100 µM
same,TGI,M14 melanoma,93.4 µM
same,TGI,K-562 leukemia,95.9 µM
same,TGI,COLO 205 colon,> 100 µM
same,TGI,NCI-H460 lung,> 100 µM
same,TGI,EKVX NSCLC,> 100 µM
same,TGI,DLD-1 colon,> 100 µM
same,TGI,UACC-257 melanoma,> 100 µM
same,TGI,SF-268 CNS,> 100 µM
same,TGI,OVCAR-3 ovarian,76.6 µM
same,TGI,SK-MEL-2 melanoma,64.3 µM
same,TGI,HT29 colon,> 100 µM
